From ChEMBL document CHEMBL3352581, “Structure-activity relationships of non-opioid [des-Arg(7)]-dynorphin A analogues for bradykinin receptors” (Bioorg Med Chem Lett, 2014) come the findings set out here.

The nature of data set [1]: Retention time of the compound by HPLC method. In kind it is physicochemical.
Data set [2] in a line: Displacement of [3H]DALKD from bradykinin receptor in rat brain membranes by competition assay. It is filed as cell membranes, Membrane.
A short description of data set [3]: Displacement of [3H]DALKD from bradykinin receptor in rat brain membranes by competition assay at pH 6.8. It is filed as cell membranes, Membrane. On the technique in general: Displacement assays read how much labelled ligand stays bound in the presence of the test substance.
Data set [4] can be described thus: Displacement of [3H]DALKD from bradykinin receptor in rat brain membranes by competition assay at pH 7.4. It is filed as cell membranes, Membrane.

Where a SMILES comes first, the peptide text is derived from it. [ ]: non-standard residue; d: D form. Nle = CCCC[C@H](N)C(=O)O

The term IC50 denotes the midpoint of a concentration-inhibition curve. Low readings indicate inhibition by little substance, high ones a need for much substance. As a reminder, the pIC50 is −log10 of the IC50, conventionally taken in molar units. As for `CCCC[C@H](NC(=O)[C@H](CCCNC(=N)N)NC(=O)[C@H](CC(C)C)NC(=O)[C@@H](N)Cc1ccccc1)C(=O)N[C@@H](CCCNC(=N)N)C(=O)N1CCC[C@H]1C(=O)N[C@@H](CCCCN)C(=O)O` (H-FLR[Nle]RPK-OH), the Retention_time in data set [1] worked out at 11.4 min. In data set [2], the IC50 worked out at 91 nM and the pIC50 was 7.04.

In data set [1], H-FLARIRPK-OH had a Retention_time of 11 min. In data set [2], the IC50 turned out to be 260 nM and the pIC50 is given as 6.58.

With H-GFLRIR-OH, the Retention_time in data set [1] came out at 8.2 min. The pIC50 in data set [3] is 6.56; in data set [4], 6.21.

H-GGFLRIRPKLK-OH displayed a Retention_time in data set [1] of 10.4 min. In data set [3], this compound showed a pIC50 of 7.39.

Turning to `CC[C@H](C)[C@H](NC(=O)[C@H](CCCNC(=N)N)NC(=O)[C@H](CC(C)C)NC(=O)[C@@H](N)Cc1ccccc1)C(=O)N[C@@H](CCCNC(=N)N)C(=O)N1CCC[C@H]1C(=O)N[C@@H](CCCCN)C(=O)O`, in data set [4], the IC50 came to 190 nM.

In the case of H-GFLRIRPKLK-OH, in data set [1], the Retention_time was determined as 10.4 min. For the same compound, the pIC50 is given as 7.58 in data set [3] and 7.39 in data set [4].

Regarding `CCCC[C@H](NC(=O)[C@H](CCCCN)NC(=O)[C@@H]1CCCN1C(=O)[C@H](CCCCN)NC(=O)[C@H](CCCC)NC(=O)[C@H](CCCCN)NC(=O)[C@@H](N)CCCC)C(=O)N[C@@H](CCCCN)C(=O)O` (H-[Nle]K[Nle]KPK[Nle]K-OH), in data set [2], the IC50 was found to be 91 nM and the pIC50 turned out to be 7.04.

On to H-LRAIRPKLK-OH, for which the Retention_time in data set [1] stood at 9.2 min. Also, in data set [2], the pIC50 came to 6.91.

In data set [1], H-GFLRIRPK-OH returned a Retention_time of 9.5 min. The pIC50 in data set [4] was 6.88.

In data set [2], H-FLRIRRPK-OH returned an IC50 of 74 nM and a pIC50 of 7.13.

H-LARIRPKLK-OH: the Retention_time in data set [1] worked out at 9.2 min. In addition, the pIC50 in data set [2] was found to be 6.99.

Compound H-FLRIR-OH came in with a Retention_time in data set [1] of 9.6 min. For the same compound, the pIC50 in data set [3] was 6.12; in data set [4], 5.67.

As to H-FLRIRPKLK-OH, in data set [1], the Retention_time is given as 9.7 min. In addition, the pIC50 in data set [3] was 7.2; in data set [4] it was 6.95.

With `CCCC[C@H](NC(=O)[C@@H](N)Cc1ccccc1)C(=O)N[C@@H](CCCNC(=N)N)C(=O)N[C@H](C(=O)N[C@@H](CCCNC(=N)N)C(=O)N1CCC[C@H]1C(=O)N[C@@H](CCCCN)C(=O)O)[C@@H](C)CC`, the Retention_time in data set [1] is recorded as 10.5 min.

Consider H-LRIRPKLK-OH, for which, in data set [3], the IC50 came to 30 nM and the pIC50 is on record as 7.52. Also, in data set [4], the IC50 turned out to be 68 nM and the pIC50 stood at 7.17.

Compound `CC[C@H](C)[C@H](NC(=O)[C@H](CCCNC(=N)N)NC(=O)[C@@H](N)CC(C)C)C(=O)N[C@@H](CCCNC(=N)N)C(=O)O` (H-LRIR-OH) returned a Retention_time in data set [1] of 7 min. The pIC50 in data set [3] is 5.66; in data set [4] it was 5.03.

In data set [2], `CCCC[C@H](NC(=O)[C@H](CCCNC(=N)N)NC(=O)[C@H](CCCC)NC(=O)[C@@H](N)Cc1ccccc1)C(=O)N[C@@H](CCCNC(=N)N)C(=O)N1CCC[C@H]1C(=O)N[C@@H](CCCNC(=N)N)C(=O)O` (H-F[Nle]R[Nle]RPR-OH) came in with an IC50 of 87 nM and a negative-log IC50 (pIC50) of 7.06.

The compound H-LRIRPK-OH displayed a Retention_time in data set [1] of 6.3 min. Moreover, the pIC50 in data set [3] came out at 6.71; in data set [4], 6.74.

On to H-FLRAIRP-OH, for which, in data set [1], the Retention_time amounted to 10.3 min. In data set [2], the IC50 was 740 nM and the pIC50 was 6.13.
